Results: publication PMC5303205, “Comparative studies on the multi-component pharmacokinetics of Aristolochiae Fructus and honey-fried Aristolochiae Fructus extracts after oral administration in rats” (BMC Complementary and Alternative Medicine, 2017)
Like-named read-outs stand apart in the source and are kept apart here.

Legend:
[1] = Multi-component pharmacokinetics of AAs in rats after oral administration of AF and HAF extracts (HPLC-MS/MS of plasma); design: species or system Sprague–Dawley (SD) rats; conditions: Sprague-Dawley, rat, in vivo
Procedure: An aliquot (100 μl) of rat plasma was spiked with 10.0 μL IS, and vortexed with 300 μL acetic ether for 10 s before the supernatant was transferred into centrifuge tube. The extraction was repeated with 200 μL acetic ether. The combined organic layer was evaporated to dryness under a gentle stream of nitrogen at RT. The residue was resolved in 100 μL methanol and centrifuged at 15,800 × g for 10 min. The supernatant was used for HPLC-MS/MS analysis.
Chromatographic separation was performed by an Acquity C18 column (4.6 × 100 mm,3.5 μm) (Agilent Technologies, USA). The mobile phase was composed of water (containing 10 mM ammonium formate and formic acid, pH 3.0) (solvent A) and ACN (solvent B). The gradient profile of B was: 0–10 min, 35–38%; 10–11 min, 38– 60%; 11–17 min, 60–35%B; 17–18 min, 35%. The flow rate was kept at 0.5 mL/min. The column oven was set at 30 °C and the injection volume was 10 μL.
The mass spectrometer was operated in the positive ion electrospray mode with multiple reaction monitoring (MRM). The optimal MS parameters were set at the following parameters: a desolvation gas temperature of 450 °C, desolvation gas flow of 10 L/min, a nebulizer gas of 40 psi and a capillary voltage of 4000 V. The mass spectrometry conditions of AA I, AA II, AA C, AA D, 7-OH AA I and IS are summarized in Additional file 1: Table S1.
The rats were randomly divided into 6 groups (low, middle and high doses of AF and HAF; n = 6). After a week of acclimation, the animals were fasted for 12 h with free access to water. Then, AF and HAF extracts were administered to the rats. The extracts were suspended in 0.5% CMC–Na solution, and the oral doses (according to AA I in the extracts) were 3.0 mg/kg, 8.0 mg/kg and 15.0 mg/kg, respectively.
Blood samples were collected from the ocular vein using dried heparinized tubes at 0, 0.083, 0.17, 0.33, 0.50, 0.67, 0.83, 1, 2, 4, 6, 8, 10, 12 and 24 h from the start. The animals received fluid replacement (sterile isotonic saline) after every two samplings since the fifth collecting. The samples were then immediately centrifuged at 3100 × g for 10 min. The plasma obtained was frozen and stored at –20 °C until analysis.
All statistical analyses were performed using the SPSS 11.0 software (Chicago, USA). P values <0.05 were considered statistically significant. Pharmacokinetic analysis was performed using the proprietary DAS 3.0 software (Mathematical Pharmacology Professional Committee of China, Shanghai, China).
After the oral administration of AF and HAF extracts, rat plasma samples were prepared and analyzed as described above. Five main AAs can be detected in rat blood with the proposed HPLC-MS/MS method. The mean pharmacokinetic parameters of five AAs in AF and HAF are summarized in Tables 4, 5 and Additional files 5, 6, 7: Tables S4-S6. The maximum concentration (C max) was the experimentally-observed value. The other pharmacokinetic parameters of the five analytes were fitted by DAS 3.0 software.

[2] = Stability of AAs in rat plasma (QC samples, HPLC-MS/MS); format: in vitro ADME; conditions: n = 5; for Short-term stability (RSD/%): fresh rat plasma at room temperature for 24 h before sample preparation; for Post-preparation stability (RSD/%): prepared rat plasma samples at room temperature for 24 h; for Long-term stability (RSD/%): rat plasma stored at –20 °C for 14 days; for Freeze-thaw stability (RSD/%): rat plasma, three freeze-thaw cycles (–20 °C 24 h, thawed at room temperature)
Procedure: The QC samples were assayed under several different conditions to evaluate the stability of AAs in rat plasma. The freeze-thaw stability of the analyte was determined over three freeze-thaw cycles. In each freeze-thaw cycle, the samples were frozen and stored at –20 °C for 24 h, then thawed at room temperature. To evaluate the long-term stability of AAs, the plasma samples were stored at –20 °C for 14 days. For the short-term stability, fresh plasma samples were kept at room temperature for 24 h before the sample preparation. After keeping the samples at room temperature for 24 h, post-preparation stability was tested. Stability was evaluated by comparing the mean concentration of the stored samples with the mean concentration of those prepared freshly. The stability data were acceptable when the bias was within ±15% of the actual value.

[3] = 3 mg/kg, AF extract, low dose (3.0 mg/kg as AA I), analyte dose mg/kg: AA I 3.0, AA II 0.21, AA C 1.42, AA D 1.60, 7-OH AA I 2.33, n = 6
[4] = 3 mg/kg, HAF extract, low dose (3.0 mg/kg as AA I), analyte dose mg/kg: AA I 3.0, AA II 0.26, AA C 1.53, AA D 1.51, 7-OH AA I 2.48, n = 6
[5] = 8 mg/kg, AF extract, mid dose (8.0 mg/kg as AA I), analyte dose mg/kg: AA I 8.0, AA II 0.56, AA C 3.78, AA D 4.26, 7-OH AA I 6.22, n = 6
[6] = 8 mg/kg, HAF extract, mid dose (8.0 mg/kg as AA I), analyte dose mg/kg: AA I 8.0, AA II 0.69, AA C 4.09, AA D 4.03, 7-OH AA I 6.62, n = 6
[7] = 15 mg/kg, AF extract, high dose (15.0 mg/kg as AA I), analyte dose mg/kg: AA I 15.0, AA II 1.05, AA C 7.09, AA D 8.00, 7-OH AA I 11.66, n = 6
[8] = 15 mg/kg, HAF extract, high dose (15.0 mg/kg as AA I), analyte dose mg/kg: AA I 15.0, AA II 1.29, AA C 7.66, AA D 7.56, 7-OH AA I 12.41, n = 6
[9] = high QC conc ng/mL: AA I 1830, AA II 3200, AA C 2980, AA D 3680, 7-OH AA I 3280
[10] = low QC conc ng/mL: AA I 1.83, AA II 8.00, AA C 186.3, AA D 36.8, 7-OH AA I 82.0
[11] = middle QC conc ng/mL: AA I 457.5, AA II 400, AA C 372.5, AA D 460, 7-OH AA I 410

COc1c(O)ccc2c1cc([N+](=O)[O-])c1c(C(=O)O)cc3c(c12)OCO3 [7-OH AA I]
AUC(0-inf) [1, 3]: 602 ng·h/mL
Cmax [1, 3]: 214 ng/mL
Tmax [1, 3]: 0.64 h
CL/F ([1]; 3 mg/kg, AF extract, low dose (3.0 mg/kg as AA I), analyte dose mg/kg: AA I 3.0, AA II 0.21, AA C 1.42, AA D 1.60, 7-OH AA I 2.33, n = 6, read-out: CLz/F (converted)): 71.5 mL/min/kg
Vd/F ([1]; 3 mg/kg, AF extract, low dose (3.0 mg/kg as AA I), analyte dose mg/kg: AA I 3.0, AA II 0.21, AA C 1.42, AA D 1.60, 7-OH AA I 2.33, n = 6, read-out: Vz/F): 24.7 L/kg
half-life ([1]; 3 mg/kg, AF extract, low dose (3.0 mg/kg as AA I), analyte dose mg/kg: AA I 3.0, AA II 0.21, AA C 1.42, AA D 1.60, 7-OH AA I 2.33, n = 6, read-out: t 1/2z (converted)): 3.84 h
AUC(0-inf) [1, 4]: 620 ng·h/mL
Cmax [1, 4]: 216 ng/mL
Tmax [1, 4]: 0.5 h
CL/F ([1]; 3 mg/kg, HAF extract, low dose (3.0 mg/kg as AA I), analyte dose mg/kg: AA I 3.0, AA II 0.26, AA C 1.53, AA D 1.51, 7-OH AA I 2.48, n = 6, read-out: CLz/F (converted)): 81.3 mL/min/kg
Vd/F ([1]; 3 mg/kg, HAF extract, low dose (3.0 mg/kg as AA I), analyte dose mg/kg: AA I 3.0, AA II 0.26, AA C 1.53, AA D 1.51, 7-OH AA I 2.48, n = 6, read-out: Vz/F): 17.5 L/kg
half-life ([1]; 3 mg/kg, HAF extract, low dose (3.0 mg/kg as AA I), analyte dose mg/kg: AA I 3.0, AA II 0.26, AA C 1.53, AA D 1.51, 7-OH AA I 2.48, n = 6, read-out: t 1/2z (converted)): 2.75 h
AUC(0-inf) [1, 5]: 1160 ng·h/mL
Cmax [1, 5]: 404 ng/mL
Tmax [1, 5]: 0.72 h
CL/F ([1]; 8 mg/kg, AF extract, mid dose (8.0 mg/kg as AA I), analyte dose mg/kg: AA I 8.0, AA II 0.56, AA C 3.78, AA D 4.26, 7-OH AA I 6.22, n = 6, read-out: CLz/F (converted)): 92.5 mL/min/kg
Vd/F ([1]; 8 mg/kg, AF extract, mid dose (8.0 mg/kg as AA I), analyte dose mg/kg: AA I 8.0, AA II 0.56, AA C 3.78, AA D 4.26, 7-OH AA I 6.22, n = 6, read-out: Vz/F): 26.1 L/kg
half-life ([1]; 8 mg/kg, AF extract, mid dose (8.0 mg/kg as AA I), analyte dose mg/kg: AA I 8.0, AA II 0.56, AA C 3.78, AA D 4.26, 7-OH AA I 6.22, n = 6, read-out: t 1/2z (converted)): 3.25 h
AUC(0-inf) [1, 6]: 991 ng·h/mL
Cmax [1, 6]: 366 ng/mL
Tmax [1, 6]: 0.67 h
CL/F ([1]; 8 mg/kg, HAF extract, mid dose (8.0 mg/kg as AA I), analyte dose mg/kg: AA I 8.0, AA II 0.69, AA C 4.09, AA D 4.03, 7-OH AA I 6.62, n = 6, read-out: CLz/F (converted)): 109 mL/min/kg
Vd/F ([1]; 8 mg/kg, HAF extract, mid dose (8.0 mg/kg as AA I), analyte dose mg/kg: AA I 8.0, AA II 0.69, AA C 4.09, AA D 4.03, 7-OH AA I 6.62, n = 6, read-out: Vz/F): 25.4 L/kg
half-life ([1]; 8 mg/kg, HAF extract, mid dose (8.0 mg/kg as AA I), analyte dose mg/kg: AA I 8.0, AA II 0.69, AA C 4.09, AA D 4.03, 7-OH AA I 6.62, n = 6, read-out: t 1/2z (converted)): 2.55 h
AUC(0-inf) [1, 7]: 1320 ng·h/mL
Cmax [1, 7]: 566 ng/mL
Tmax [1, 7]: 0.5 h
CL/F ([1]; 15 mg/kg, AF extract, high dose (15.0 mg/kg as AA I), analyte dose mg/kg: AA I 15.0, AA II 1.05, AA C 7.09, AA D 8.00, 7-OH AA I 11.66, n = 6, read-out: CLz/F (converted)): 174 mL/min/kg
Vd/F ([1]; 15 mg/kg, AF extract, high dose (15.0 mg/kg as AA I), analyte dose mg/kg: AA I 15.0, AA II 1.05, AA C 7.09, AA D 8.00, 7-OH AA I 11.66, n = 6, read-out: Vz/F): 52.3 L/kg
half-life ([1]; 15 mg/kg, AF extract, high dose (15.0 mg/kg as AA I), analyte dose mg/kg: AA I 15.0, AA II 1.05, AA C 7.09, AA D 8.00, 7-OH AA I 11.66, n = 6, read-out: t 1/2z (converted)): 3.45 h
AUC(0-inf) [1, 8]: 1130 ng·h/mL
Cmax [1, 8]: 531 ng/mL
Tmax [1, 8]: 0.53 h
CL/F ([1]; 15 mg/kg, HAF extract, high dose (15.0 mg/kg as AA I), analyte dose mg/kg: AA I 15.0, AA II 1.29, AA C 7.66, AA D 7.56, 7-OH AA I 12.41, n = 6, read-out: CLz/F (converted)): 207 mL/min/kg
Vd/F ([1]; 15 mg/kg, HAF extract, high dose (15.0 mg/kg as AA I), analyte dose mg/kg: AA I 15.0, AA II 1.29, AA C 7.66, AA D 7.56, 7-OH AA I 12.41, n = 6, read-out: Vz/F): 47.4 L/kg
half-life ([1]; 15 mg/kg, HAF extract, high dose (15.0 mg/kg as AA I), analyte dose mg/kg: AA I 15.0, AA II 1.29, AA C 7.66, AA D 7.56, 7-OH AA I 12.41, n = 6, read-out: t 1/2z (converted)): 2.94 h
Short-term stability (RSD/%) [2, 9]: 9.1%
Short-term stability (RSD/%) [2, 10]: 7.1%
Short-term stability (RSD/%) [2, 11]: 11.8%
Post-preparation stability (RSD/%) [2, 9]: 6.7%
Post-preparation stability (RSD/%) [2, 10]: 5.1%
Post-preparation stability (RSD/%) [2, 11]: 4.2%
Long-term stability (RSD/%) [2, 9]: 11.1%
Long-term stability (RSD/%) [2, 10]: 2.0%
Long-term stability (RSD/%) [2, 11]: 6.4%
Freeze-thaw stability (RSD/%) [2, 9]: 13.4%
Freeze-thaw stability (RSD/%) [2, 10]: 6.2%
Freeze-thaw stability (RSD/%) [2, 11]: 12.3%
